From the NIST ThermoML archive (doi:10.1016/j.jct.2004.07.008)

Assay: xn = mol fraction of the nth substance listed
Conditions: 100 kPa, Liquid

CCNCC [diethylamine] + O
mass density [kg/m3]
Conditions	278.15 K	288.15 K	293.15 K	298.15 K	308.15 K
x1 = 0.0006	999.491	998.664	997.751	996.626	993.562
x1 = 0.0024	997.912	997.039	996.154	994.988	991.942
x1 = 0.0035	996.932	996.037	995.136	993.969	990.903
x1 = 0.0044	996.139	995.23	994.323	993.151	990.065
x1 = 0.0056	995.225	994.285	993.371	992.182	989.066
x1 = 0.0064	994.57	993.602	992.679	991.472	988.353
x1 = 0.0081	993.249	992.212	991.279	990.04	986.873
x1 = 0.0097	992.04	990.934	989.98	988.714	985.476
x1 = 0.0172	987.17	985.63	984.539	983.09	979.496
x1 = 0.0291	980.983	978.376	976.96	975.088	970.666
x1 = 0.04	976.381	972.612	970.596	968.411	962.812
x1 = 0.0799	957.078	949.316	945.543	941.882	936.416
x1 = 0.0962	–	939.288	–	932.747	927.169
x1 = 0.1023	–	935.289	–	928.614	923.171
x1 = 0.1157	–	927.131	–	918.262	–
x1 = 0.1191	933.215	925.183	920.953	916.971	910.193
x1 = 0.1717	905.317	896.85	892.377	888.178	883.177
x1 = 0.229	–	871.09	–	–	–
x1 = 0.2382	876.611	867.217	863.096	858.163	848.844
x1 = 0.2939	859.045	–	842.233	837.568	827.974
x1 = 0.3003	857.537	844.712	839.967	835.41	825.737
x1 = 0.3501	–	829.202	824.477	819.781	810.104
x1 = 0.3558	838.534	–	822.73	817.933	808.149
x1 = 0.3911	–	–	–	809.086	–
x1 = 0.4057	–	814.027	809.021	–	794.354
x1 = 0.4407	815.342	–	–	795.926	–
x1 = 0.4625	810.256	799.75	795.056	789.779	779.967
x1 = 0.4844	805.352	–	–	784.888	–
x1 = 0.5091	799.695	–	–	–	769.213
x1 = 0.523	–	–	781.055	–	766.718
x1 = 0.5287	–	–	–	775.014	–
x1 = 0.6144	779.133	768.288	763.538	759.804	748.753
x1 = 0.6304	775.979	–	760.21	–	745.249
x1 = 0.7017	763.313	–	747.769	742.589	732.049
x1 = 0.7022	–	752.772	–	742.461	732.247
x1 = 0.726	–	–	742.965	–	–
x1 = 0.7549	–	–	738.917	733.676	723.048
x1 = 0.7771	751.837	–	735.541	730.331	719.687
x1 = 0.805	749.039	737.02	731.853	726.558	–
x1 = 0.8523	741.596	729.358	724.287	718.777	708.199
x1 = 0.8755	735.261	–	–	715.631	–
x1 = 0.8822	–	725.559	719.965	714.728	–
x1 = 0.8941	–	–	718.394	713.135	702.403
x1 = 0.9019	732.413	–	–	712.05	–
x1 = 0.931	–	718.71	713.312	708.033	–
x1 = 0.941	726.848	–	712.088	706.818	696.061
x1 = 0.9589	724.66	–	–	704.314	–
x1 = 0.9727	–	–	708.394	703.131	692.387
x1 = 0.979	721.447	–	–	701.729	–
x1 = 1	719.94	709.52	704.59	698.97	688.29
